SMILES strings stand for the structures.

In US8592629B2, “Sulfonamide derivatives as Nav 1.7 inhibitors” (Pfizer Limited, priority 2010, dated 2013) one finds IC50 data, which are given here for 27 molecules.

For the test, the target named is T1, Nav1.7 (or SCN9A) channel (Homo sapiens, UniProt Q15858).
T1 construct: expressed in transfected cells
T1 sequence (Q15858 whole entry): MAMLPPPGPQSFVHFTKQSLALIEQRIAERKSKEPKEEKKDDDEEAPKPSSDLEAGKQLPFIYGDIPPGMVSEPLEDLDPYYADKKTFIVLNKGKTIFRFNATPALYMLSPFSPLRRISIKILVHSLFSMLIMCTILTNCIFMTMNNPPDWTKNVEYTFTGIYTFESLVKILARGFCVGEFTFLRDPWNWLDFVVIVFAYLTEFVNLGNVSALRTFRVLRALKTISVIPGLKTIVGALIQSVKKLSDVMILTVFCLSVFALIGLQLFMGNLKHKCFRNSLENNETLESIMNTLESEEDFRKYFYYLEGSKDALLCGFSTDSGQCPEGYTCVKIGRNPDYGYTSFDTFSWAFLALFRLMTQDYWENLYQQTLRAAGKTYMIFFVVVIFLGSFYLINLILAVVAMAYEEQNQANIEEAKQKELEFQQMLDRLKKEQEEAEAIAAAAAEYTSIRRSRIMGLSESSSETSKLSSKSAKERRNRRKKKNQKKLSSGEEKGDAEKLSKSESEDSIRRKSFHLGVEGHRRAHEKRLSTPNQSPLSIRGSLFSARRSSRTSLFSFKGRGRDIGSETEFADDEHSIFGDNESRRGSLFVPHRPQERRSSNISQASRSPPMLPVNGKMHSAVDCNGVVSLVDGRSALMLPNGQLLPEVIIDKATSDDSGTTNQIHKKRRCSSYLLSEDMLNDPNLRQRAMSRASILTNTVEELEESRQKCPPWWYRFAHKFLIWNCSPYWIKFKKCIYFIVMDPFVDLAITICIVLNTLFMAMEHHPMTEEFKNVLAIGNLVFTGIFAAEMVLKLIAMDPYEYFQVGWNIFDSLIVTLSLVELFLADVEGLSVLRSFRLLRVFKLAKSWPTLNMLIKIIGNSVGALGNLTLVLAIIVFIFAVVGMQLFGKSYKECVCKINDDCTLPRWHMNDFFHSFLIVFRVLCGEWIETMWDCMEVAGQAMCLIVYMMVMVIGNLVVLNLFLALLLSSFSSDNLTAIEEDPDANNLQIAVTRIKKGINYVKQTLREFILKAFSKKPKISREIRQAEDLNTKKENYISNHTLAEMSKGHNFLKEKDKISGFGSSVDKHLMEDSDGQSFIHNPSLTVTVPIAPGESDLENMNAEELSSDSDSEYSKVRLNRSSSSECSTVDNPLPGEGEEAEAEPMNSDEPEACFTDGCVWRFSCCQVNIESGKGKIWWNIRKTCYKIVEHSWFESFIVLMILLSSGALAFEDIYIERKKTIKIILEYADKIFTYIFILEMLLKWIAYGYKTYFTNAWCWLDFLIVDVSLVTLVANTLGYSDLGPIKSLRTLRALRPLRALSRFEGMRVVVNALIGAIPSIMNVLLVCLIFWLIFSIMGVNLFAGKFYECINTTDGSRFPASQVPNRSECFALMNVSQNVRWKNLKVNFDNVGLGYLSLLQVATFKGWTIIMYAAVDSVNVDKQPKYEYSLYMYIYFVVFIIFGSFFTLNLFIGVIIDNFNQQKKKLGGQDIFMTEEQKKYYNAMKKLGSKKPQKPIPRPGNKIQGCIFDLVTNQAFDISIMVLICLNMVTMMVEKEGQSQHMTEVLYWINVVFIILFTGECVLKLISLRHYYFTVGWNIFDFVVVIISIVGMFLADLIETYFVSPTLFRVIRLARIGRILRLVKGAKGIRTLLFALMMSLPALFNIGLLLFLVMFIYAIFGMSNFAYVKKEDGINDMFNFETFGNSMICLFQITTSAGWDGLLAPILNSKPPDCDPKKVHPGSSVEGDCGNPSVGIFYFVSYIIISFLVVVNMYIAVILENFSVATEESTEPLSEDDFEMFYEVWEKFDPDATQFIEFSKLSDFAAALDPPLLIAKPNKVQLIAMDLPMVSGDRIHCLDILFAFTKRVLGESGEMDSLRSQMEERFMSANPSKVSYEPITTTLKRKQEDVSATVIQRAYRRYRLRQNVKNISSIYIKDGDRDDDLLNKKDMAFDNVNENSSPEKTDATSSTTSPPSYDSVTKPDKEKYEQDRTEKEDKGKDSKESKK
Description: Nav1.7 (hSCN9A) block in HEK cells, PatchXpress 7000 automated electrophysiology, estimated IC50 (EIC50). It counts as cell-based. The note with it: PatchXpress assay; HEK cells stably transfected with hSCN9A, voltage-clamped at V1/2 of inactivation. The procedure:
The ability of the compounds of formula (I) to block the Nav1.7 (or SCN9A) channel were measured using the assay described below.
Human Embryonic Kidney (HEK) cells were transfected with an hSCN9A construct using lipofectamine reagent (Invitrogen), using standard techniques. Cells stably expressing the hSCN9A constructs were identified by their resistance to G-418 (400 μg/ml). Clones were screened for expression using the whole-cell voltage-clamp technique.
HEK cells stably transfected with hSCN9A were maintained in DMEM medium supplemented with 10% heat-inactivated fetal bovine serum and 400 μg/ml G-418 in an incubator at 37° C. with a humidified atmosphere of 10% CO2. For HTS, cells were harvested from flasks by trypsinization and replated in an appropriate multi-well plate (typically 96 or 384 wells/plate) such that confluence would be achieved within 24 hours of plating. For electrophysiological studies, cells were removed from the culture flask by brief trypsinization and re-plated at low density onto glass cover slips. Cells were typically used for electrophysiological experiments within 24 to 72 hours after plating.
HEK cells stably transfected with hSCN9A were viewed under Hoffman contrast optics and placed in front of an array of flow pipes emitting either control or compound-containing extracellular solutions. All compounds were dissolved in dimethyl sulfoxide to make 10 mM stock solutions, which were then diluted into extracellular solution to attain the final concentrations desired. […] The voltage-dependence of inactivation was determined by applying a series of depolarizing prepulses (8 sec long in 10 mV increments) from a negative holding potential. The voltage was then immediately stepped to 0 mV to assess the magnitude of the sodium current. Currents elicited at 0 mV were plotted as a function of prepulse potential to allow estimation of the voltage at which 50% of the channels were inactivated (midpoint of inactivation or V1/2). Compounds were tested for their ability to inhibit hSCN9A sodium channels by activating the channel with a 20 msec voltage step to 0 mV following an 8 second conditioning prepulse to the empirically determined V1/2. Compound effect (% inhibition) was determined by difference in current amplitude before and after application of test compounds. For ease of comparison, “estimated IC-50” (EIC50) values were calculated from single point electrophysiology data by the following equation, (tested concentration, uM) X (100-% inhibition/% inhibition). Inhibition values <20% and >80% were excluded from the calculation.
Electrophysiological assays were conducted with PatchXpress 7000 hardware and associated software (Molecular Devices Corp). All assay buffers and solutions were identical to those used in conventional whole-cell voltage clamp experiments described above. hSCN9A cells were grown as above to 50%-80% confluency and harvested by trypsinization. Trypsinized cells were washed and resuspended in extracellular buffer at a concentration of 1×10^6 cells/ml. The onboard liquid handling facility of the PatchXpress was used for dispensing cells and application of test compounds. Determination of the voltage midpoint of inactivation was as described for conventional whole-cell recordings. Cells were then voltage-clamped to the empirically determined V1/2 and current was activated by a 20 msec voltage step to 0 mV.
Compounds of the Examples were tested in the assays described above and found to have the Nav1.7 EIC50 (μM) values specified in the table below. All data are derived from the PatchXpress assay unless explicitly stated otherwise.
With `CS(=O)(=O)NC(=O)c1cc(F)c(Oc2cnc(OC3CCOCC3)c(Cl)c2)cc1F` [Example 24, 4-{[5-chloro-6-(tetrahydro-2H-pyran-4-yloxy)pyridin-3-yl]oxy}-2,5-difluoro-N-(methylsulfonyl)benzamide], the IC50 was 780 nM.
Consider `COc1ccncc1Oc1cc(F)c(C(=O)NS(C)(=O)=O)cc1F` [Example 89, 2,5-difluoro-4-(4-methoxypyridin-3-yloxy)-N-(methylsulfonyl)benzamide], for which the IC50 was over 3000 nM.
Next, `CS(=O)(=O)NC(=O)c1cc(F)c(Oc2cnc(OCC(F)(F)F)c(Cl)c2)cc1F` [Example 27, 4-{[5-chloro-6-(2,2,2-trifluoroethoxy)pyridin-3-yl]oxy}-2,5-difluoro-N-(methylsulfonyl)benzamide]: 220 nM; `CS(=O)(=O)NC(=O)c1cc(F)c(Oc2cnc(OCC3CC3)c(Cl)c2)cc1F` [Example 35, 4-{[5-chloro-6-(cyclopropylmethoxy)pyridin-3-yl]oxy}-2,5-difluoro-N-(methylsulfonyl)benzamide]: 41 nM.
To `CCN(CC)c1ncc(Oc2cc(F)c(C(=O)NS(C)(=O)=O)cc2F)cc1Cl` [Example 150, 4-{[5-chloro-6-(diethylamino)pyridin-3-yl]oxy}-2,5-difluoro-N-(methylsulfonyl)benzamide] belongs 220 nM; to `CS(=O)(=O)NC(=O)c1cc(F)c(Oc2cnc(OC3CCC(F)(F)CC3)c(Cl)c2)cc1F` [Example 65, 4-({5-chloro-6-[(4,4-difluorocyclohexyl)oxy]pyridin-3-yl}oxy)-2,5-difluoro-N-(methylsulfonyl)benzamide], 650 nM; to `CS(=O)(=O)NC(=O)c1cc(Cl)c(Oc2cnc(C3CC(F)(F)C3)c(Cl)c2)cc1F` [Example 109, 5-chloro-4-{[5-chloro-6-(3,3-difluorocyclobutyl)pyridin-3-yl]oxy}-2-fluoro-N-(methylsulfonyl)benzamide], 97 nM.
To `CC(C)C(F)(F)c1ncc(Oc2cc(F)c(C(=O)NS(C)(=O)=O)cc2Cl)cc1Cl` [Example 60, 5-chloro-4-{[5-chloro-6-(1,1-difluoro-2-methylpropyl)pyridin-3-yl]oxy}-2-fluoro-N-(methylsulfonyl)benzamide] belongs 140 nM.
`CS(=O)(=O)NC(=O)c1cc(F)c(Oc2cnc(N3CC(F)(F)C3)c(Cl)c2)cc1F` [Example 130, 4-{[5-chloro-6-(3,3-difluoroazetidin-1-yl)pyridin-3-yl]oxy}-2,5-difluoro-N-(methylsulfonyl)benzamide]: the IC50 was 740 nM.
Next, `COCCNc1ncc(Oc2cc(F)c(C(=O)NS(C)(=O)=O)cc2F)cc1Cl` [Example 143, 4-({5-chloro-6-[(2-methoxyethyl)amino]pyridin-3-yl}oxy)-2,5-difluoro-N-(methylsulfonyl)benzamide]: over 1000 nM.
On to `CS(=O)(=O)NC(=O)c1cc(Cl)c(Oc2cnc(OCC(F)(F)F)c(Cl)c2)cc1F` [Example 58, 5-chloro-4-{[5-chloro-6-(2,2,2-trifluoroethoxy)pyridin-3-yl]oxy}-2-fluoro-N-(methylsulfonyl)benzamide], for which the half-inhibitory concentration (IC50) is 23 nM.
Regarding `CS(=O)(=O)NC(=O)c1cc(F)c(Oc2cnc(OC3CCC3)c(Cl)c2)cc1F` [Example 16, 4-(5-Chloro-6-cyclobutoxypyridin-3-yloxy)-2,5-difluoro-N-(methylsulfonyl)benzamide], the IC50 is 130 nM.
Next, `COC[C@H](C)Nc1ncc(Oc2cc(F)c(C(=O)NS(C)(=O)=O)cc2F)cc1Cl` [Example 136, 4-[(5-chloro-6-{[(1S)-2-methoxy-1-methylethyl]amino}pyridin-3-yl)oxy]-2,5-difluoro-N-(methylsulfonyl)benzamide]: 890 nM; `CC(C)c1ncc(Oc2cc(F)c(C(=O)NS(C)(=O)=O)cc2Cl)cc1Cl` [Example 111, 5-Chloro-4-(5-chloro-6-isopropylpyridin-3-yloxy)-2-fluoro-N-(methylsulfonyl)benzamide]: 290 nM; `CS(=O)(=O)NC(=O)c1cc(Cl)c(Oc2cnc(OC3CC3)c(Cl)c2)cc1F` [Example 55, 5-chloro-4-{[5-chloro-6-(cyclopropyloxy)pyridin-3-yl]oxy}-2-fluoro-N-(methylsulfonyl)benzamide]: 48 nM.
With `CS(=O)(=O)NC(=O)c1cc(Cl)c(Oc2cnc(Oc3ccccc3)c(Cl)c2)cc1F` [Example 100, 5-chloro-4-[(5-chloro-6-phenoxypyridin-3-yl)oxy]-2-fluoro-N-(methylsulfonyl)benzamide], the IC50 was 72 nM.
Next, `CC1(COc2ncc(Oc3cc(F)c(C(=O)NS(C)(=O)=O)cc3F)cc2Cl)CC1` [Example 28, 4-({5-chloro-6-[(1-methylcyclopropyl)methoxy]pyridin-3-yl}oxy)-2,5-difluoro-N-(methylsulfonyl)benzamide]: 33 nM.
To `CS(=O)(=O)NC(=O)c1cc(F)c(Oc2cnc(C(F)(F)F)c(Cl)c2)cc1F` [Example 68, 4-{[5-chloro-6-(trifluoromethyl)pyridin-3-yl]oxy}-2,5-difluoro-N-(methylsulfonyl)benzamide] belongs 1800 nM.
To `CS(=O)(=O)NC(=O)c1cc(Cl)c(Oc2cnc(OCC(F)(F)C(F)F)c(C(F)(F)F)c2)cc1F` [Example 105, 5-Chloro-2-fluoro-N-(methylsulfonyl)-4-(6-(2,2,3,3-tetrafluoropropoxy)-5-(trifluoromethyl)pyridin-3-yloxy)benzamide] belongs 31 nM.
For `[2H]C([2H])([2H])C([2H])(Oc1ncc(Oc2cc(F)c(C(=O)NS(C)(=O)=O)cc2Cl)cc1Cl)C([2H])([2H])[2H]` (single isomer, unassigned) [Example 42, 5-chloro-4-({5-chloro-6-[d7-propan-2-yloxy]pyridin-3-yl}oxy)-2-fluoro-N-(methylsulfonyl)benzamide], the IC50 was 31 nM.
Regarding `CN(c1ncc(Oc2cc(F)c(C(=O)NS(C)(=O)=O)cc2F)cc1Cl)C1CCC1` [Example 133, 4-({5-chloro-6-[cyclobutyl(methyl)amino]pyridin-3-yl}oxy)-2,5-difluoro-N-(methylsulfonyl)benzamide], the IC50 was 170 nM.
Next, `CS(=O)(=O)NC(=O)c1cc(F)c(Oc2cnc(NC3CCCOC3)c(Cl)c2)cc1F` (stereo not drawn) [Example 145, 4-{[5-chloro-6-(tetrahydro-2H-pyran-3-ylamino)pyridin-3-yl]oxy}-2,5-difluoro-N-(methylsulfonyl)benzamide]: 810 nM.
Consider `CS(=O)(=O)NC(=O)c1cc(F)c(Oc2cnc(N3CCC(F)C3)c(Cl)c2)cc1F` (stereo not drawn) [Example 124, 4-{[5-chloro-6-(3-fluoropyrrolidin-1-yl)pyridin-3-yl]oxy}-2,5-difluoro-N-(methylsulfonyl)benzamide], for which the IC50 is 640 nM.
To `CS(=O)(=O)NC(=O)c1cc(Cl)c(Oc2cnc(OCC(F)(F)C(F)(F)F)c(Cl)c2)cc1F` [Example 56, 5-chloro-4-{[5-chloro-6-(2,2,3,3,3-pentafluoropropoxy)pyridin-3-yl]oxy}-2-fluoro-N-(methylsulfonyl)benzamide] belongs 13 nM.
To `CS(=O)(=O)NC(=O)c1cc(F)c(Oc2cnc(OC(CF)CF)c(Cl)c2)cc1F` [Example 80, 4-({5-chloro-6-[2-fluoro-1-(fluoromethyl)ethoxy]pyridin-3-yl}oxy)-2,5-difluoro-N-(methylsulfonyl)benzamide] belongs 1500 nM.
To `CC(C)(F)COc1ncc(Oc2cc(F)c(C(=O)NS(C)(=O)=O)cc2Cl)cc1Cl` [Example 57, 5-chloro-4-{[5-chloro-6-(2-fluoro-2-methylpropoxy)pyridin-3-yl]oxy}-2-fluoro-N-(methylsulfonyl)benzamide] belongs 94 nM; to `CS(=O)(=O)NC(=O)c1cc(F)c(Oc2cnc(N3C[C@@H](F)[C@H](F)C3)c(Cl)c2)cc1F` [Example 119, 4-({5-chloro-6-[(3R,4R)-3,4-difluoropyrrolidin-1-yl]pyridin-3-yl}oxy)-2,5-difluoro-N-(methylsulfonyl)benzamide], 400 nM.
